Measured values as given in patent publication US20080280810A1, “PEPTIDES HAVING AFFINITY FOR BODY SURFACES” (priority 2006, published 2008).

What was measured:
[1] = Phage ELISA on pellicle coated HAP disks; assay type: binding, human; conditions: over 10^10 pfu purified phage, anti-M13 HRP conjugate, TMB, no phage control 0.218
Procedure: A total of 20 selected phage candidates (Example 29) were used in a phage ELISA experiment. Purified phage lysates were used for binding to pellicle HAP disks using an anti-M13 phage antibody conjugated to horseradish-peroxidase, followed by the addition of chromogenic agent TMB, obtained from Pierce Biotechnology (Rockford, Ill.). The plates were read at A450 nm.
For each phage candidate to be tested, the pellicle coated HAP disks (3 mm diameter) was incubated for 1 h at room temperature with 200 μL of blocking buffer, consisting of 2% non-fat dry milk (Schleicher & Schuell, Inc.) in TBS. The blocking buffer was removed by aspirating the liquid out of each tube. The tube was rinsed 6 times with wash buffer consisting of TBST-0.05%. The wells were filled with 200 μL of TBST-0.5% containing 1 mg/mL BSA (bovine serum albumin) and then 10 μL (over 10^10 pfu) of purified phage stock was added. The samples were incubated at room temperature for 60 min with slow shaking. The non-binding phage were removed by washing 6 times with TBST-0.5%. Then, 100 μL of horseradish peroxidase/anti-M13 antibody conjugate (Amersham USA, Piscataway, N.J.), diluted 1:500 in the blocking buffer, was added and incubated for 1 h at room temperature. The conjugate solution was removed and was washed 6 times with TBST-0.5%. TMB (3,3′,5,5′-tetramethylbenzidine) substrate (200 μL), obtained from Pierce Biotechnology (Rockford, Ill.) was added to each well and the color was allowed to develop for 5 to 30 min, typically for 10 min, at room temperature. Then, stop solution (200 μL of 2 M H2SO4) was added to each well and the solution was transferred to a 96-well plate and the A450 was measured using a microplate spectrophotometer (Molecular Devices, Sunnyvale, Calif.).

[2] = Co-application of multi-block peptide with semi-permanent dye (Arianor Ebony), color retention; parameters: species or system human; conditions: difference in Delta E between peptide sample and peptide free control after 3 embrocation cycles (about 12 manual shampoos); pH 8.5-9.0; >2 benefit, >4 substantial benefit
Procedure: (§1) A 0.5% aqueous solution of Arianor Ebony (Sensient Technologies Corp, Milwaukee, Wis.) containing 3% benzyl alcohol and 0.05% diazolidinyl urea (biocide) was prepared. Dye insolubles were removed by filtration and the pH of the dye solution was adjusted to 8.50-9.0, using ethanolamine.
(§2) Approximately 1 mL of the dye solution was added to selected wells of a 24-well plate (Thomson Instrument Co., Oceanside, Calif.; part # 931565). A multi-block peptide (see Table 12) was dissolved in a solution consisting of 3 wt % benzyl alcohol and 95 wt % water to yield a peptide concentration of 2 wt % or approximately 20 mg/mL. The pH was adjusted to 8.5-9.0 using ethanolamine. The peptide solution was then pipetted into test wells containing dye solution in the amount of 1 mL or 0.2 mL respectively. The total volume in each test well was then adjusted to 2 mL where necessary using 3% aqueous benzyl alcohol (pH adjusted to 8.5-9.0 with ethanolamine). Peptide free controls consisted of 1 mL of dye solution diluted to 2 mL with the pH adjusted aqueous benzyl alcohol solution.
(§3) Baseline […] readings were made on one inch long tresses (see below) using an X-RITE® SP78™ Sphere Spectrophotometer (X-Rite, Inc., Grandville, Mich.), by placing the hair tress into the photosensor and calculating L*, a* and b* parameters representing the photometer response. All measurements were the average of three individual determinations.
(§4) The tresses (potted on one end with resin) of natural white, 85% gray or regular bleached hair (International Hair Importers and Products, Bellerose, N.Y.) were immersed in the peptide/dye solution and the entire well plate was agitated on a VORTEX-GENIE® 2 Mixer (Scientific Industries, Bohemia, N.Y.) at a speed setting of 1 for 30 minutes. The tresses were removed from the wells, rinsed for 30 seconds under flowing deionized water and then air dried.
(§5) The following complement of beads was then added to each well containing a hair tress: (8 beads in all; 4 Novagen Coli Rollers Plating Beads—sterilized (EMD Biosciences, San Diego, Calif.; Catalog No. 71013), 2 BioSpec 6.35 mm glass beads (BioSpec Products, Bartlesville, Okla.; Catalog No. 11079635), and 2 BioSpec 3.2 mm Stainless Steel Bead (Catalog No. 11079132ss).
(§6) Then 2.5 mL of aqueous 50% Pantene Pro V® shampoo (Proctor & Gamble Co., Cincinnati, Ohio) was pipetted into each well. The plate was placed on a VWR® VX-2500 Multi-tube Vortexer (VWR, West Chester, Pa.) for 5 minutes to simulate shampooing with embrocation. The hair tresses were then rinsed under flowing deionized water and air dried. This cycle was repeated two more times except that the length of time was 10 minutes for both subsequent embrocation cycles. (This treatment was previously determined to simulate approximately 12 manual shampoo cycles.) At the conclusion of the third embrocation cycle L*, a* and b* values were measured and Delta E values (ΔE) were calculated using equation 1 below:
(§7) where L*=the lightness variable and a* and b* are the chromaticity coordinates of CIELAB colorspace as defined by the International Commission of Illumination (CIE) (Minolta, Precise Color Communication—Color Control From Feeling to Instrumentation, Minolta Camera Co., 1996).
(§8) The Delta E value (ΔE) indicates color retention relative to the non-dyed hair and larger Delta E values indicate better performance. Values listed in the table represent the difference in Delta E values between the peptide-containing sample and the peptide free control. This difference is indicative of color retention after shampoo or water rinse treatments and positive values indicate better performance relative to the peptide free controls (Table 12).

[3] = as above; parameters: species or system human; key: ΔE of peptide sample minus peptide-free control; larger = better retention; conditions: difference in Delta E between peptide sample and peptide free control after 3 embrocation cycles (about 12 manual shampoos); pH 8.5-9.0; >2 benefit, >4 substantial benefit
Procedure: as §1, §2, §3, §4, §5, §6, §7, §8

[4] = HPLC analysis of peptide uptake by hair; assay type: binding, human; conditions: 20 mM Tris pH 7.2, 0.15 M NaCl, room temperature, no dye; peptide 0.1 mg/mL (IB5A, A5) or 0.05 mg/mL (HC 71, HC 74)
Procedure: The purpose of this Example was to compare the speed of uptake by measuring the amount of various peptides including peptides of the invention bound to hair at different time points using a high performance liquid chromatography (HPLC) method. The peptides, HC 71, HC 74, IB5 (the hair-binding peptide sequence in HC 71), and A5 (the hair-binding peptide sequence in HC 74), were dissolved in 10 mL of 20 mM Tris, pH 7.2 buffer containing 0.15 M NaCl to give the peptide concentrations shown in Table 11. Natural white hair, 0.54 g, (International Hair Importers & Products Inc., Bellerose, N.Y.) was pre-equilibrated with 10 mL of Tris buffer for 30 min with mixing at room temperature. Then, the buffer was drained from the hair and 10 mL of one of the peptide solutions was added. The hair was incubated with the peptide solution at room temperature without mixing and samples were taken at 0, 30 and 60 min for HPLC analysis. For peptide uptake measurements in the presence of Acid Red 33 dye, the peptide solution was mixed 1:1 with an aqueous solution of the dye (0.5 wt %). Natural white hair (0.65 g) pre-wet with deionized water, was added to the peptide solutions and the solutions were incubated at room temperature without mixing. Samples were taken at time 0, 30, and 60 min for analysis by HPLC. The samples were analyzed using HPLC to determine the concentration of the peptide remaining in solution, and by difference, the amount of peptide taken up by the hair. The HPLC analysis was done using an Agilent liquid chromatograph (Agilent Technologies Inc., Wilmington, Del.) with a 5 μm Zorbax Eclipse XDB-C18 column (Agilent Technologies Inc.). The sample was diluted with distilled water containing 0.1% trifluoroacetic acid (typically a 10-fold dilution), and 5 to 50 μL was injected using a 100 μL injection loop. A solvent gradient elution was used with two solvents: Solvent A, consisting of acetonitrile with 0.1% aqueous trifluoracetic acid, and Solvent B, consisting of water with 0.1% trifluoroacetic acid. The gradient was from 10% acetonitrile to 80% acetonitrile at a rate of 1%/min over a period of 70 min. The flow rate was 1.25 mL/min. Detection was done with a photodiode array detector at 218 nm, 230 nm, and 278 nm.

NPTDSTHMMHARNHE [Pell 16]
O.D. at 450 nm [1]: 0.578

KF11-EGEGED (NTSQLSTEGEGED; Peptide having affinity for hair)
ΔE Retention Ebony Dye with 85% Gray Hair [2]: 0.94
ΔE Retention Ebony Dye Regular Bleached Hair [3]: −4.05
ΔE Retention Ebony dye with Natural White Hair [3]: 3.6

NGPDMVQSVGKHKNS [Pell 10]
O.D. at 450 nm [1]: 0.729

EQISGSLVAAPW (Hair-Binding Peptide) [Peptide A5, reference compound]
% Uptake time = 0 min [4]: 0%
% Uptake time = 30 min [4]: 2%
% Uptake time = 60 min [4]: 4%

DLCSMQMMNTGCHY [Pell 5]
O.D. at 450 nm [1]: 0.83

DLCSSPSTWGSCIR [Pell 6]
O.D. at 450 nm [1]: 0.735

LDTSFHQVPFHQ (Peptide having affinity for hair) [Peptide F4, reference compound]
ΔE Retention Ebony Dye with 85% Gray Hair [2]: 3.24
ΔE Retention Ebony Dye Regular Bleached Hair [3]: 0.95
ΔE Retention Ebony dye with Natural White Hair [3]: 5.17

DECMHGSDVEFCTS [Pell 4]
O.D. at 450 nm [1]: 0.664

A5-EGEGER (EQISGSLVAAPWEGEGER; Peptide having affinity for hair) [Peptide A5-EGEGER]
ΔE Retention Ebony Dye with 85% Gray Hair [2]: 3.7
ΔE Retention Ebony Dye Regular Bleached Hair [3]: −1.0
ΔE Retention Ebony dye with Natural White Hair [3]: 5.7

AHPESLGIKYALDGNSDPHA [Pell 1]
O.D. at 450 nm [1]: 0.739

P-KRGRHKRPKRHK-GGG-IB5A-C (PKRGRHKRPKRHKGGGTPPELLHGAPRSC; Peptide having affinity for hair) [HC100]
ΔE Retention Ebony Dye with 85% Gray Hair [2]: 4.1
ΔE Retention Ebony Dye Regular Bleached Hair [3]: −0.27
ΔE Retention Ebony dye with Natural White Hair [3]: −4.5

TPCATYPHFSGCRA [Pell 19]
O.D. at 450 nm [1]: 0.731

GNTDTTPPNAVMEPTVQHKW [Pell 9]
O.D. at 450 nm [1]: 0.755

F4-KRKRKD (LDTSFHQVPFHQKRKRKD; Peptide having affinity for hair) [Peptide F4-KRKRKD]
ΔE Retention Ebony Dye with 85% Gray Hair [2]: 2.87
ΔE Retention Ebony Dye Regular Bleached Hair [3]: −2.66
ΔE Retention Ebony dye with Natural White Hair [3]: 0.12

DECMEPLNAAHCWR [Pell 3]
O.D. at 450 nm [1]: 0.49

NGPEVRQIPANFEKL [Pell 11]
O.D. at 450 nm [1]: 0.607

NNTSADNPPETDSKHHLSMS [Pell 12]
O.D. at 450 nm [1]: 0.521

TPPELLHGAPRS (Hair-binding peptide) [IB5A, reference compound]
% Uptake time = 0 min [4]: 0%
% Uptake time = 30 min [4]: 8%

EPTHPTMRAQMHQSLRSSSP [Pell 8]
O.D. at 450 nm [1]: 0.712

NPTDHIPANSTNSRVSKGNT [Pell 15]
O.D. at 450 nm [1]: 0.567

NPTATPHMKDPMHSNAHSSA [Pell 14]
O.D. at 450 nm [1]: 0.7

A5-KRKRKD (EQISGSLVAAPWKRKRKD; Peptide having affinity for hair) [Peptide A5-KRKRKD]
ΔE Retention Ebony Dye with 85% Gray Hair [2]: −0.59
ΔE Retention Ebony Dye Regular Bleached Hair [3]: 1.09
ΔE Retention Ebony dye with Natural White Hair [3]: 5.8

WCTDFCTRSTPTSTSRSTTS [Pell 20]
O.D. at 450 nm [1]: 0.715

TPCAPASFNPHCSR [Pell 18]
O.D. at 450 nm [1]: 0.416

ASVSNYPPIHHLATSNTTVN [Pell 2]
O.D. at 450 nm [1]: 0.75

NNTWPEGAGHTMPSTNIRQA [Pell 13]
O.D. at 450 nm [1]: 0.598

DPNESNYENATTVSQPTRHL [Pell 7]
O.D. at 450 nm [1]: 0.831

IB5-KRKRKD (TPPELLHGDPRSKRKRKD; Peptide having affinity for hair)
ΔE Retention Ebony Dye with 85% Gray Hair [2]: 1.2
ΔE Retention Ebony Dye Regular Bleached Hair [3]: −0.44
ΔE Retention Ebony dye with Natural White Hair [3]: 4.49
